Measurements from ChEMBL document CHEMBL5537191, “Rebamipide and Derivatives are Potent, Selective Inhibitors of Histidine Phosphatase Activity of the Suppressor of T Cell Receptor Signaling Proteins” (J Med Chem, 2024).
The source made the active and inactive calls. The calls are words filed in the database; no cut-off is given here.

Columns and labels:
[1] = target: T1, Receptor-type tyrosine-protein phosphatase C (Homo sapiens) (UniProt P08575); test: Inhibition of recombinant human CD45 (604 to 1304 residues) phosphatase activity expressed in baculovirus infected Sf9 incubated for 20 mins by spectrophotometric analysis
T1 sequence (whole entry): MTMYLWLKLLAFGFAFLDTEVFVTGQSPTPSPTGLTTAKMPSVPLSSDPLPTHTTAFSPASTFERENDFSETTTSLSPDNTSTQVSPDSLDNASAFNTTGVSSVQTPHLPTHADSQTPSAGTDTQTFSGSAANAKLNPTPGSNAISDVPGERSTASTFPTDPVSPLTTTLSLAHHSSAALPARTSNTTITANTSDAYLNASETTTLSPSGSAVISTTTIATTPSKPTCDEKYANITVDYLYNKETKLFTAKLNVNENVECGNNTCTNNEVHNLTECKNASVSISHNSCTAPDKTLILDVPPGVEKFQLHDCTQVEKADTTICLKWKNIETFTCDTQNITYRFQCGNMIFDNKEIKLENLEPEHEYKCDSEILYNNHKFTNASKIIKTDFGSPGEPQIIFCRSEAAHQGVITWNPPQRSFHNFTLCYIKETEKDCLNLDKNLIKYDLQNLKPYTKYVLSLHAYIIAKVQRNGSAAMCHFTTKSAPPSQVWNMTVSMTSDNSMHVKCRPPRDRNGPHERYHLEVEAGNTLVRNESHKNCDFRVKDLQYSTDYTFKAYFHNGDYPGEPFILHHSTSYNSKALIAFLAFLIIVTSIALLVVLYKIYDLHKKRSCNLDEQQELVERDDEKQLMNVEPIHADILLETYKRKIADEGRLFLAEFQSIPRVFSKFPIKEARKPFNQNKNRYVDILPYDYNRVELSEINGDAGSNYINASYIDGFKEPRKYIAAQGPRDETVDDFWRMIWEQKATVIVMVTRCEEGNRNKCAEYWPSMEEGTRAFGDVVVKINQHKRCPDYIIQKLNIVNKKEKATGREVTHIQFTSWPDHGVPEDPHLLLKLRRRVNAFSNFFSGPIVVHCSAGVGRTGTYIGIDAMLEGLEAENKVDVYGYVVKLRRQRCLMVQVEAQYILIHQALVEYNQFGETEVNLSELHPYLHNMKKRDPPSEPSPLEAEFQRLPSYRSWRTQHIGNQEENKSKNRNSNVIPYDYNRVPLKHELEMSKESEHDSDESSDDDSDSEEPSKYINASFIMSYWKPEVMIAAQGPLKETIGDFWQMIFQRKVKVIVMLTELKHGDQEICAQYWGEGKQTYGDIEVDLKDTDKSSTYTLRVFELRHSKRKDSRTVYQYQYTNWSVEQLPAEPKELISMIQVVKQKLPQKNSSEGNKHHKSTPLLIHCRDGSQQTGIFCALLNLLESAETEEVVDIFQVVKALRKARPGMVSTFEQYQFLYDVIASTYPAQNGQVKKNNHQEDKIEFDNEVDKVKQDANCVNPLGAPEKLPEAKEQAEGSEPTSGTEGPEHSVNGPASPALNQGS

Homo sapiens = species: Homo sapiens; test: Inhibition of recombinant STS-1 W505L mutant HP domain (unknown origin)
[2] = target: T2, Tyrosine-protein phosphatase non-receptor type 1 (Homo sapiens) (UniProt P18031); test: Inhibition of recombinant human PTP-1B (1 to 321 residues) phosphatase activity expressed in Escherichia coli incubated for 20 mins by spectrophotometric analysis
T2 sequence (whole entry): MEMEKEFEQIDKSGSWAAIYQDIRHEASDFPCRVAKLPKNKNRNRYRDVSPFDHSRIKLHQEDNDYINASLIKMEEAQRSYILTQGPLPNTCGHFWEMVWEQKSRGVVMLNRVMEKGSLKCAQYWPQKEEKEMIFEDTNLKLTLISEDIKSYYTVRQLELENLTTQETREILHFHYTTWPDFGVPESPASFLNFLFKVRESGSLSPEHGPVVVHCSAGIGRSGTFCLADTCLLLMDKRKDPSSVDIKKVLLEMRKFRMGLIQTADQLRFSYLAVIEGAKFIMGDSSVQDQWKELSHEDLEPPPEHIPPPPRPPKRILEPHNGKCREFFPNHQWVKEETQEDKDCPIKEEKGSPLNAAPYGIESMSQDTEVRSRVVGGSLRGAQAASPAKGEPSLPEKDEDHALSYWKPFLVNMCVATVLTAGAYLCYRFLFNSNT

[3] = target: T3, Ubiquitin-associated and SH3 domain-containing protein A (Homo sapiens) (UniProt P57075); test: Inhibition of human STS-2 HP domain (396 to 657 residues) phosphatase activity expressed in Escherichia coli BL21 (DE3) incubated for 20 mins by spectrophotometric analysis
T3 sequence (whole entry): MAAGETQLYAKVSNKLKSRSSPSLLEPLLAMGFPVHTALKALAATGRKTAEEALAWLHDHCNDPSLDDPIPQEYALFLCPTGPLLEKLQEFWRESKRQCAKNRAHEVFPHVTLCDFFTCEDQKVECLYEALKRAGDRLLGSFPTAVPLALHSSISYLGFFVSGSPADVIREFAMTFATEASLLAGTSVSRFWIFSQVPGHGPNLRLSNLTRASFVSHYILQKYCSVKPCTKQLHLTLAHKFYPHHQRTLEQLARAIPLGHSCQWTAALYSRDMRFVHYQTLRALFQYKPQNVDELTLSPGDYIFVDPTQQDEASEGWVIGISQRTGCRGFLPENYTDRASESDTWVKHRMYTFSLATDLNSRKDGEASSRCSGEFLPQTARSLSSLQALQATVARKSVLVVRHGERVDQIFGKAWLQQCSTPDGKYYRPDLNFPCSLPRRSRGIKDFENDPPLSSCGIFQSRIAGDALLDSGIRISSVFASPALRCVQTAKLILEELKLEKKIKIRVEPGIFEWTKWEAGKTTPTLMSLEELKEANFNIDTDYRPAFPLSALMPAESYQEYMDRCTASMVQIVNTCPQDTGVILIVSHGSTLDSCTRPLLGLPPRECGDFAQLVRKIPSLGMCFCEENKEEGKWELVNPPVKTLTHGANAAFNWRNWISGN

[4] = target: Tyrosine-protein phosphatase non-receptor type 6 (Homo sapiens) (UniProt P29350); test: Inhibition of recombinant human SHP1 (243 to 541 residues) phosphatase activity expressed in Escherichia coli incubated for 20 mins by spectrophotometric analysis
Sequence of Tyrosine-protein phosphatase non-receptor type 6 (Homo sapiens) (P29350 whole entry, the tested form may be a part): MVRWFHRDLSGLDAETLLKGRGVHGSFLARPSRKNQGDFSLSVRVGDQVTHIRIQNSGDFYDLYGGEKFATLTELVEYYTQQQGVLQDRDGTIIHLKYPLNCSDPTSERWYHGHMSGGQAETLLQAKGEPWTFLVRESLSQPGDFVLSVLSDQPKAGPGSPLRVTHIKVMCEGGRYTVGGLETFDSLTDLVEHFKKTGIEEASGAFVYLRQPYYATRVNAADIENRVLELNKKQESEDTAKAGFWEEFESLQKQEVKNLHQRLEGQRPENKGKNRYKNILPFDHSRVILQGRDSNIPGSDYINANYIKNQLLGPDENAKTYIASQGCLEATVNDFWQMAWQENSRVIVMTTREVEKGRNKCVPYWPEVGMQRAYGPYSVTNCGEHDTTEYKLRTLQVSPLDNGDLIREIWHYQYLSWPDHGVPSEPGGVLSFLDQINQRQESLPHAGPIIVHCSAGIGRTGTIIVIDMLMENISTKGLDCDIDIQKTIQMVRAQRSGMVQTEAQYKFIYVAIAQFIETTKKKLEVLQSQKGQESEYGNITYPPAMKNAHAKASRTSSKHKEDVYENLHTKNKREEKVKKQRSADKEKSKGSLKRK

inhibition [1]: inactive | inhibition (Homo sapiens): inactive | inhibition [2]: inactive | inhibition [3]: Active | inhibition [4]: inactive
Compound: O=C(NC(Cc1cc(=O)[nH]c2ccccc12)C(=O)O)c1ccc(Cl)cc1 (stereo not given)
